{"source": "patent US20060269601A1", "about": "“Oral modified release formulations containing 8-prenylnaringenin for continuous estrogen support” (priority 2005, published 2006)", "key": {"[1]": {"assay": "Clinical Phase Ia study: drug serum levels after single oral dose of 8-prenylnaringenin", "type": "in vivo, human (postmenopausal women)", "excerpt": "The pharmacokinetic profile of 8-prenylnaringenin is characterized by a complete oral absorption, a low degree of metabolization (less than 60% of dose) and a high pre-systemic elimination (first-liver-pass excretion; about 55% of dose). This high and unexpected pre-systemic elimination leads to an accumulation of substantial amounts in the bile fluid from which they are secreted into the duodenum when gastric signaling occurs with food intake. The 8-prenylnaringenin is then absorbed again and enters systemic circulation. Data were taken from the clinical Phase Ia study and represent two volunteers in the lowest dose group (50 mg 8-prenylnaringenin).\nTaking the total area under the curve as a measure of 8-prenylnaringenin systemic availability, the percentage of the area under the second peak (generated by reabsorption of the pre-systemically eliminated and then biliary secreted amounts) can be used to estimate those portions of the doses that undergo pre-systemic elimination after oral dosing. The average figure was 54±20% for the six women in the study.\nRe-increases in drug serum levels show reabsorption of dose parts collected in the bile fluid and subsequently secreted triggered by intake of the midday meal.\n8-prenylnaringenin is analyzed by a specifically developed radio-immunoassay. A 4′-O hapten ({4-[5,7-Dihydroxy-8-(3-methyl-but-2-enyl)-4-oxo-chroman-2-yl]-phenoxy}-acetic acid) was synthesized starting from racemic naringenin and coupled to cationized bovine serum albumin (cBSA). This antigen was mixed with Freund's adjuvants and injected into rabbits. The antiserum resulting after several boosters was isolated as an IgG fraction and used in a final dilution of 1:100.000. A tritiated tracer was synthesized by preparation of the 3′,5′-dibromo derivative of 8-prenylnaringenin, again starting from racemic naringenin. Both bromine atoms were exchanged to ^3H in a final, palladium-catalyzed step leading to the tritiated tracer of a specific radioactivity of 2.22 GBq/mg.\nBiological matrices, i.e. blood plasma, blood serum, or urine, are either directly extracted with tert-butyl methyl ether (tert-BME) or after enzymatic de-conjugation by means of glucuronidase/arylsulfatase (Helix pomatia). Organic layers are separated, evaporated and the residues taken up in assay buffer. Extract residues or dilutions of standard 8-prenylnaringenin solutions are then mixed with antiserum and tracer and kept at 4° C. overnight. Dextran-coated charcoal is added to separate bound and free 8-prenylnaringenin and bound radioactivity is quantified with a liquid scintillation counter after addition of a scintillation cocktail."}, "uterus": {"system": "uterus", "conditions": "compared with estradiol at equivalent bone protective doses; cited from earlier work"}, "[2]": {"assay": "pH-dependent solubility of 8-prenylnaringenin", "type": "physicochemical", "conditions": "dependence on pH", "excerpt": "The solid oral modified release formulations of this invention show a pH-independent drug release in vitro. This is important as the pH varies considerably in the gastro-intestinal tract and continuous release should be achieved independent of the pH. However, the solubility of 8-prenylnaringenin is pH-dependent. […] The low acid solubility property of 8-prenylnaringenin results in vitro in slow drug dissolution at pH 1, whereas the dissolution is fast at higher pH-values such as pH 6.8. The resulting dissolution profiles are different at different pH-values. This problem is solved by the solid oral modified release formulation of this invention."}, "[3]": {"assay": "In vitro release/dissolution from mini-matrix tablets, basket apparatus USP XXV", "type": "physicochemical", "method": "Measurement of the active ingredient release from mini-matrix tablets is carried out according to a one-compartment method (basket apparatus), as described in U.S. Pharmacopeia USP XXV. The release of 8-prenylnaringenin was examined in phosphate buffer solution, pH 6.8 (composition, see USP XXV) or in 0.1 N HCl. Ten percent (w/w) hydroxypropyl-β-cyclodextrine were added in order to achieve sink conditions and primarily control the drug release by the dosage form."}}}
{"compound": "CC(C)=CCc1c(O)cc(O)c2c1OC(c1ccc(O)cc1)CC2=O", "note": "(centres unmarked) [8-prenylnaringenin, 5,7-Dihydroxy-2-(4-hydroxyphenyl)-8-(3-methylbut-2-enyl)-chroman-4-on]", "values": [{"measurement": "percentage of the area under the second peak of total area under the curve (portion of dose undergoing pre-systemic elimination)", "setting": "[1]; average for the six women in the study, after oral dosing", "value": "54±20", "unit": "%"}, {"measurement": "degree of metabolization", "setting": "[1]; oral dosing, human", "value": "less than 60 % of dose"}, {"measurement": "oral absorption", "setting": "[1]; oral dosing, human", "value": "complete"}, {"measurement": "pre-systemic elimination (first-liver-pass excretion)", "setting": "[1]; oral dosing, human", "value": "about 55 % of dose"}, {"measurement": "activity on the uterus", "setting": "uterus", "value": "much lower activity on the uterus than estradiol"}, {"measurement": "solubility", "setting": "[2]", "value": "pH-dependent"}, {"measurement": "drug dissolution in vitro", "setting": "[3]; higher pH-values such as pH 6.8", "value": "fast"}, {"measurement": "drug dissolution in vitro", "setting": "[3]; pH 1", "value": "slow"}]}
